# From US9079964B2, “Immunoassay for cyclopropylindole based synthetic cannabinoids, metabolites and derivatives thereof” (Randox Laboratories Limited, priority 2013, dated 2015)
# How the values were obtained:
# [1] = tested on: antiserum raised to Immunogen I; assay: UR144/XLR11 Synthetic Cannabinoids (Spice) ELISA, antiserum raised to Immunogen I (third bleed); format: binding, sheep; conditions: for Concentration of compounds that elicit a negative response: Table 4, negative response at this concentration; for % Cross-Reactivity: Table 4, relative to UR144 N-Pentanoic Acid = 100
# Experimental: (§1) The wells of an enhanced binding 96 well polystyrene microtiter plate were coated with IgG fraction of antiserum raised to Immunogen I or II, diluted in 10 mM Tris, pH 8.5 (125 μl/well). The appropriate antibody coating dilution was determined using standard ELISA checkerboard techniques. The plate was incubated overnight at 4° C., washed 4 times over 10 minutes with Tris buffered saline containing Tween20 (TBST) and tapped dry. Standard solutions (UR-144 N-pentanoic acid) were applied at 0, 0.625, 1.25, 2.5, 5, 10, 20 and 40 ng/ml and 50 μl of each was added to the appropriate wells. 75 μl of conjugate (appropriate hapten-HRP) diluted in Tris buffer (pH 7.2) containing EDTA, D-mannitol, sucrose, thimerosol and BSA, was added to each of the wells. The appropriate dilution of conjugate was also determined using standard ELISA checkerboard techniques. The plate was incubated at 25° C. for 1 hour. Excess unbound conjugate was removed by washing 6 times over a ten minute period with TBST. 125 μl of tetramethylbenzidine (TMB) substrate solution was added to each well of the plate that was then incubated for 20 minutes in the dark at room temperature. The reaction was terminated by addition of 125 μl of 0.2 M H2SO4 to each well. The absorbance was then measured at 450 nm using a microtiter plate reader. The data are inputted to a computer program called ‘KC Junior’ (Biotek). It gives a 4 parameter fit curve and allows the calculation of concentrations between the standard runs. This program is used to calculate the IC50 values by dividing the 0 ng/ml optical density (OD) value by 2 and obtaining the concentration value from the curve for this OD.
# (§2) Cross-reactivity was calculated according to the following formula: % CR=IC50, UR-144 N-pentanoic acid/IC50, cross reactant×100 Where % CR is the percentage cross-reactivity, IC50, UR-144 N-pentanoic acid is the concentration of UR-144 N-pentanoic acid that causes 50% displacement of signal and IC50, cross reactant is the concentration of the cannabinoid/metabolite/selected molecule that causes 50% displacement of signal.
# A further assay was carried out in accordance with the protocol described in Example 9 using Immunogen I.
# [2] = tested on: antiserum raised to Immunogen I; assay: Competitive ELISA with IgG fraction of antiserum raised to Immunogen I (second bleed) and hapten 1-HRP detecting agent; format: binding, sheep; conditions: Table 2; for % B/BO: cross-reactant at 100 ng/ml (single level); for IC50 / % Cross-reactivity (CR): cross-reactant tested at 100 ng/ml; for % Cross-reactivity (CR): relative to UR-144 N-pentanoic acid
# Experimental: as §1, §2
# In order to determine the specificity of the competitive ELISAs, standard solutions of a range of structurally related synthetic cannabinoids and their metabolites were prepared in TBST (Tris-Buffered Saline and Tween 20). Using the calibration curves generated and employing a single level of cross reactants, these were used to determine the cross-reactivity of the immunoassays with these substances.
Structure (SMILES),Concentration of compounds that elicit a negative response [1] [ng/mL],% B/BO [2] [%],IC50 [2] [µg/mL],% Cross-reactivity (CR) [2] [%],% Cross-Reactivity [1] [%]
CCCCCn1c(O)c(C(=O)c2cccc3ccccc23)c2ccccc21 [2-OH JWH-018],100,–,–,–,–
CCCCn1c(O)c(C(=O)c2cccc3ccccc23)c2ccccc21 [2-OH JWH-073],100,–,–,–,–
CCCCCn1cc(C(=O)c2cccc3ccccc23)c2c(O)cccc21 [4-OH JWH-018],100,–,–,–,–
CCCCn1cc(C(=O)c2cccc3ccccc23)c2c(O)cccc21 [4-OH JWH-073],100,–,–,–,–
CCCCn1cc(C(=O)c2cccc3ccccc23)c2cc(O)ccc21 [5-OH JWH-073],100,–,–,–,–
CCCCn1cc(C(=O)c2cccc3ccccc23)c2ccc(O)cc21 [6-OH JWH-073],100,–,–,–,–
CCCCCn1cc(C(=O)c2cccc3ccccc23)c2cccc(O)c21 [7-OH JWH-018],100,–,–,–,–
CCCCn1cc(C(=O)c2cccc3ccccc23)c2cccc(O)c21 [7-OH JWH-073],100,–,–,–,–
O=C(c1cn(CCCCCO)c2ccccc12)C12CC3CC(CC(C3)C1)C2 [AB001 N-pentanol],100,–,–,–,–
O=C(O)CCCCn1cc(C(=O)C23CC4CC(CC(C4)C2)C3)c2ccccc21 [AB001N-pentanoic acid],100,–,–,–,–
O=C(NC12CC3CC(CC(C3)C1)C2)c1nn(CCCCCF)c2ccccc12 [AKB48 N (5-fluoropentyl) analog],100,–,–,–,–
O=C(c1ccccc1I)c1cn(CCCCCF)c2ccccc12 [AM694],100,79.00,>0.1,<3.0,–
CN1CCCCC1Cn1cc(C(=O)c2cccc3ccccc23)c2ccccc21 (stereo not shown) [AM1220],–,73.59,>0.1,<3.0,–
CN1CCCCC1Cn1cc(C(=O)c2cc([N+](=O)[O-])ccc2I)c2ccccc21 (stereo not shown) [AM1241],100,77.96,>0.1,<3.0,–
O=C(c1cccc2ccccc12)c1cn(CCCCCF)c2ccccc12 [AM2201],100,85.58,>0.1,<3.0,–
CCCn1c(C)c(C(=O)c2cccc3ccccc23)c2ccccc21 [JWH-015],100,89.77,>0.1,<3.0,–
CCCCCn1cc(C(=O)c2cccc3ccccc23)c2cc(O)ccc21 [JWH-018 (5 hydroxyindole)],100,94.61,>0.1,<3.0,–
CCCCCn1cc(C(=O)c2cccc3ccccc23)c2ccc(O)cc21 [JWH-018 (6 hydroxyindole)],100,93.92,>0.1,<3.0,–
"O=C(c1cccc2ccccc12)c1cn(CCCCCO)c2ccccc12 [JWH-018 N (5 hydroxypentyl) metabolite, 1-(5-hydroxypentyl)-1H-indol-3-yl(naphthalen-1-yl)methanone]",100,87.56,>0.1,<3.0,–
O=C(O)CCCCn1cc(C(=O)c2cccc3ccccc23)c2ccccc21 [JWH-018 N (carboxybutyl) metabolite],–,89.14,>0.1,<3.0,–

Structure (SMILES),Concentration of compounds that elicit a negative response [1] [ng/mL],% B/BO [2] [%],IC50 [2] [µg/mL],% Cross-reactivity (CR) [2] [%],% Cross-Reactivity [1] [%]
"CC(O)CCCn1cc(C(=O)c2cccc3ccccc23)c2ccccc21 (stereo not shown) [JWH-018 N-(4-hydroxypentyl) metabolite, 1-(4-hydroxypentyl)-1H-indol-3-yl(napthalen-1-yl)-methanone]",100,–,–,–,–
"O=C(O)CCCCn1cc(-c2cccc3ccccc23)c2ccccc21 [JWH-018 N-pentanoic acid metabolite, 5-(3-(1-naphthyl)-1H-indol-1-yl)pentanoic acid]",100,–,–,–,–
CCCCCn1cc(C(=O)NC23CC4CC(CC(C4)C2)C3)c2ccccc21 [JWH-018 adamantyl carboxamide],10,–,–,–,–
CCCCCn1cc(C(=O)C23CC4CC(CC(C4)C2)C3)c2ccccc21 [JWH-018 adamantyl],100,–,–,–,–
CCCCCn1cc(C(=O)c2cccc3ccccc23)c2ccccc21 [JWH-018],–,87.89,>0.1,<3.0,–
CCCCCCn1cc(C(=O)c2cccc3ccccc23)c2cc(O)ccc21 [JWH-019 5-hydroxyindole metabolite],100,–,–,–,–
CCCCCCn1cc(C(=O)c2cccc3ccccc23)c2ccccc21 [JWH-019],–,87.30,>0.1,<3.0,–
"CC(O)CCn1cc(C(=O)c2cccc3ccccc23)c2ccccc21 (stereo not shown) [JWH-073 N-(3-hydroxybutyl) metabolite, 1-(3-hydroxybutyl)-1H-indol-3-yl(napthalen-1-yl)methanone]",100,–,–,–,–
"O=C(c1cccc2ccccc12)c1cn(CCCCO)c2ccccc12 [JWH-073 N-(4-hydroxybutyl) metabolite, 1-(4-hydroxybutyl)-1H-indol-3-yl(naphthalen-1-yl)methanone]",100,–,–,–,–
"O=C(O)CCCn1cc(-c2cccc3ccccc23)c2ccccc21 [JWH-073 N-butanoic acid metabolite, 4-(3-(1-naphthyl)-1H-indol-1-yl)butanoic acid]",100,–,–,–,–
COc1ccc(C(=O)c2cn(CCCCCO)c3ccccc23)c2ccccc12 [JWH-081 N-(5-hydroxypentyl) metabolite],100,–,–,–,–
CCCCCn1cc(C(=O)c2ccc(CC)c3ccccc23)c2ccccc21 [JWH-210],–,95.89,>0.1,<3.0,–
COc1ccccc1CC(=O)c1cn(CCCCCC(=O)O)c2ccccc12 [JWH-250 N-(5-carboxypentyl) metabolite],100,–,–,–,–
COc1ccccc1CC(=O)c1cn(CCCCCO)c2ccccc12 [JWH-250 N-(5-hydroxypentyl) metabolite],100,–,–,–,–
"O=C(c1cccc2ccccc12)c1c[nH]c2ccccc12 [N-desalkyl JWH-018, 3-(1-naphthoyl) indole]",100,–,–,–,–
O=C(NC12CC3CC(CC(C3)C1)C2)c1cn(CCCCCF)c2ccccc12 [STS135],100,–,–,–,–
CC(O)CCCn1cc(C(=O)C2C(C)(C)C2(C)C)c2ccccc21 (stereo not shown) [UR144 N-(4-hydroxypentyl) metabolite],–,–,–,–,107
C=C(C)C(C)(C)CC(=O)c1cn(CCCCCF)c2ccccc12 [XLR11 Degradant],–,–,–,–,3
CC(O)CCCn1cc(C(=O)C2C(C)(C)C2(C)C)c2ccccc21 (stereo not shown) [XLR11 N-(4-hydroxypentyl) metabolite],–,–,–,–,2
